Measured values: patent US9187410B2, “Process for isolating tigecycline and tigecycline made therefrom” (Hovione Inter Limited, priority 2009, dated 2015)

How the values were obtained:
Type in all cases: physicochemical
[1] = Modulated differential scanning calorimetry (mDSC/DSC) of amorphous tigecycline; settings: unstressed sample; for glass transition temperature (Tg): mDSC, 25° C. to 300° C. at 3° C./min
Method: The DSC apparatus used was a DSC Q200 from TA Instruments, using the following settings: method—from 25° C. to 300° C. at 3° C./min; modulate +/−0.50° C. every 40 seconds. In addition to a higher Tg value, spray dried tigecycline also crystallizes and melts (after crossing the glass transition) at higher temperature than lyophilized tigecycline. By Tg we mean the critical temperature at which the material changes its behaviour from being ‘glassy’ to being ‘rubbery’. ‘Glassy’ in this context means hard and brittle (and therefore relatively easy to break), while ‘rubbery’ means elastic and flexible.

[2] = Dynamic Vapour Sorption (DVS) water uptake; settings: 25° C.
Method: We also have performed Dynamic Vapour Sorption studies (DVS) and these studies have shown that samples of tigecycline isolated by spray drying and by lyophilzation have distinctive hygroscopic behavior. […] The DVS conditions were as follows: temperature-25° C.; equilibrium criteria 0.00% w/w every 10 min; maximum equilibrium time—120 min; start RH—5%; maximum RH—95%; steps—10%. A vapor sorption analyzer (VTI-SGA 100) was used. […] The difference in the water uptake between the two forms increases with RH for most of the isotherm. By RH we mean relative humidity, the amount of water vapor that exists in a gaseous mixture of air and water. At 45% humidity, the spray dried sample takes up 2.9% w/w water and lyophilized sample 3.9% w/w water. At 95% humidity, the difference is even more evident: the spray dried form takes up 22.6% w/w water and the lyophilized form 24.5% w/w water. The form obtained by lyophilization is more hygroscopic than the form obtained by spray drying.

[3] = DSC after fast stress conditions (oven at 100° C. for 24 hours); settings: after 24 hours at 100° C.
Method: The DSC apparatus used was a DSC Q200 from TA Instruments, using the following settings: method—from 25° C. to 300° C. at 3° C./min; modulate +/−0.50° C. every 40 seconds. Spray dried tigecycline and lyophilized tigecycline were submitted to fast stress conditions by placing the samples in an oven at 100° C. for 24 hours. The reversible and total flow DSC curves for the stressed samples were then measured and the results are presented in FIG. 4 and FIG. 5 respectively.

Row | glass transition temperature (Tg) ([1]; listed as lyophilized compound of formula [1]) [°C] | water uptake ([2]; 45% humidity, listed as lyophilized sample) [% w/w] | water uptake ([2]; 95% humidity, listed as lyophilized form) [% w/w] | glass transition temperature (Tg) ([1]; listed as amorphous compound of formula [1] obtained by spray drying) [°C] | crystallisation temperature ([1]; total heat flow DSC) [°C] | crystallization temperature after stress [3] [°C] | glass transition temperature after stress [3] [°C] | water uptake ([2]; 45% humidity, listed as spray dried sample) [% w/w] | water uptake ([2]; 95% humidity, listed as spray dried form) [% w/w] | Compound
1 | 126 | 3.9 | 24.5 | – | – | – | – | – | – | CN(C)c1cc(NC(=O)CNC(C)(C)C)c(O)c2c1C[C@H]1C[C@H]3[C@H](N(C)C)C(O)=C(C(N)=O)C(=O)[C@@]3(O)C(O)=C1C2=O [lyophilized tigecycline, tigecycline]
2 | – | – | – | 129 | ≥ 146 | ≥ 154 | ≥ 143 | 2.9 | 22.6 | CN(C)c1cc(NC(=O)CNC(C)(C)C)c(O)c2c1C[C@H]1C[C@H]3[C@H](N(C)C)C(O)=C(C(N)=O)C(=O)[C@@]3(O)C(O)=C1C2=O [spray dried tigecycline, tigecycline]
